In US20230109489A1, “Compound and Use Thereof” (FELIQS CORPORATION, priority 2020, published 2023):

Key:
[1] = LO. scavenging ability, liposome-Fe2+ system (Fe stimulation), NBD-TEEPO fluorescence; format: biochemical; details: for R/L: ratio of activity value (R) of LO. scavenging ability to activity value (L) of LOO. scavenging ability / Fe stimulation (R): activity value of LO. scavenging ability: test compound 10 μmol/l; for Fe stimulation (R): activity value of LO. scavenging ability: FeSO4 1.0 mmol/l, liposomes, 37° C., 180 minutes, 1−(AUCSample/AUCControl)
From the text: As described above, the compound of the present invention has alkoxyl radical scavenging ability. The “alkoxyl radical scavenging ability” in the present invention means the ability to scavenge LO., for example. The LO. scavenging ability can be evaluated on the basis of its activity value, for example. The activity value of the LO. scavenging ability can be evaluated, for example, using the liposome-Fe^2+ system disclosed in WO 2019/009355. More specifically, it can be measured in a manner described in Example 1 below. As a specific example, the activity value of the LO. scavenging ability can be measured by performing the following steps (i) to (v): • (i) preparing a buffer solution containing a compound represented by the formula (A) and liposomes; • (ii) adding a divalent iron ion source material; • (iii) adding a test compound; • […] measuring a fluorescence; and • (v) determining the activity value of the test compound as per the following equation using the result of the fluorescence measurement.
Activity value of LO. scavenging ability=1−(AUCSample/AUCControl)
AUCSample: the area under the curve calculated from the fluorescence intensity measured in the presence of Fe^2+ and the test compound (n=1)
AUCControl: the area under the curve calculated from the fluorescence intensity measured in the presence of Fe^2+ and in the absence of the test compound
In step (i), the concentration of the compound represented by the formula (A) is, for example, 1 to 20 μmol/l and typically 5 μmol/l. The liposomes are prepared from, for example, egg-yolk phosphatidylcholine (Egg PC) and dihexadecyl hydrogen phosphate (DCP). The concentration of the egg-yolk phosphatidylcholine is, for example, 5 to 10 mg/ml and typically […]. The concentration of the dihexadecyl hydrogen phosphate is, for example, 0.01 to 1 mg/ml and typically 0.1 mg/ml.
In step (ii), the concentration of the divalent iron ion source material is, for example, 0.5 to 5 mmol/l and typically 1 mmol/l. The divalent iron ion source material is, for example, iron(II) sulfate.
In step (iii), the concentration of the test compound is 5 to 100 μmol/l. A specific example of the concentration is 10 μmol/l.
In step (iv), the wavelength of excitation light at the time of measuring the fluorescence can be set to, for example, 470 nm; the fluorescence wavelength can be set to, for example, 530 nm; and the fluorescence intensity at 530 nm can be measured. The period for measuring the fluorescence is, for example, from 0 to 240 minutes at intervals of 0.1 to 5 minutes and typically 180 minutes at intervals of 3 minutes, with step (iii) being the start time, for example.
The following solutions were prepared: a solution A containing liposomes (10 mg/ml Egg PC, 0.4 mg/ml DCP) and 20 μmol/l NBD-TEEPO compound (compound represented by the formula (A)) in phosphate buffer (10 mmol/l, pH 7.4, 2.0% acetonitrile); and a solution B containing 4.0 mmol/l FeSO4 in distilled water. A 10 μl aliquot of each of the solutions A and B was dispensed using a Multidrop Combi (Thermo Fisher Scientific), and these aliquots were mixed together. The final concentrations of the respective components in the phosphate buffer (10 mmol/l, pH 7.4, 0.5% acetonitrile, 1% dimethyl sulfoxide (DMSO)) were as follows: the liposomes (2.5 mg/ml Egg PC, 0.1 mg/ml DCP), the NBD-TEEPO compound (5.0 μmol/l), a test compound (10 μmol/l), and FeSO4 (1.0 mmol/l). As the test compound, the compounds represented by the formulae (3) to (5) and (7) to (10) were used as compounds of examples, the compound (methyldopa) represented by the formula (1a) was used as a compound of a comparative example, and edaravone and a SCREEN-WELL® FDA-approved drug library (Enzo Life Sciences) were used as reference examples. The test compounds were dissolved in DMSO. […]

[2] = LOO. scavenging ability, liposome-AAPH system (AAPH stimulation), NBD-TEEPO fluorescence; format: biochemical; parameters: key: activity = 1 − (FluSample−FluBackground)/(FluControl−FluBackground); details: test compound 10 μmol/l, AAPH 20 mmol/l, liposomes, 37° C., after 40 minutes
From the text: As described above, the compound of the present invention has peroxyl radical scavenging ability. “Peroxyl radical scavenging ability” in the present invention means the ability to scavenge LOO., for example. The LOO. scavenging ability can be evaluated on the basis of its activity value, for example. The activity value of the LOO. scavenging ability can be evaluated using, for example, the liposome-AAPH (2,2′-azobis(2-amidinopropane)dihydrochloride) system disclosed in WO 2019/009355. More specifically, it can be measured in a manner described in Example 1 below. As a specific example, the activity value of the LOO. scavenging ability can be measured by performing the following steps (vi) to (x): • (vi) preparing a buffer solution containing a compound represented by the formula (A) and liposomes; • (vii) adding 2,2′-azobis(2-amidinopropane)dihydrochloride; • (viii) adding a test compound; • […] measuring a fluorescence; and • (x) determining the activity value of the test compound as per the following equation using the result of the fluorescence measurement.
Activity value of LOO. scavenging ability=1−(FluSample−FluBackground)/(FluControl−FluBackground)
Flusampie: the fluorescence intensity measured in the presence of AAPH and the test compound (n=1)
FluBackground: the fluorescence intensity measured in the absence of AAPH
FluControl: the fluorescence intensity measured in the presence of AAPH and in the absence of the test compound
In step (vi), the concentration of the compound represented by the formula (A) is, for example, 1 to 20 μmol/l and typically 5 μmol/l. The liposomes are prepared from, for example, egg-yolk phosphatidylcholine and dihexadecyl hydrogen phosphate. The concentration of the egg-yolk phosphatidylcholine is, for example, 5 to 10 mg/ml and typically 2.5 mg/ml. The concentration of the dihexadecyl hydrogen phosphate is, for example, 0.01 to 1 mg/ml and typically 0.1 mg/ml.
In step (vii), the concentration of AAPH is, for example, 5 to 50 mmol/l and typically 20 mmol/l.
In step (viii), the concentration of the test compound is 5 to 100 μmol/l. A specific example of the concentration is 10 μmol/l.
In step (ix), the wavelength of excitation light at the time of measuring the fluorescence can be set to, for example, 470 nm; the fluorescence wavelength can be set to, for example, 530 nm; and the fluorescence intensity at 530 nm can be measured. The measurement of the fluorescence is performed, for example, after 1 to 120 minutes has elapsed and typically after 30 to 40 minutes has elapsed since step (viii).
The following solutions were prepared: a solution A containing liposomes (10 mg/ml Egg PC, 0.4 mg/ml DCP) and NBD-TEEPO compound (20 μmol/l) in phosphate buffer (10 mmol/l, pH 7.4, 2.0% acetonitrile); and a solution B containing 80 mmol/l AAPH in phosphate buffer (10 mmol/l, pH 7.4). A 10 μl aliquot of each of the solutions A and B was dispensed using a Multidrop Combi, and these aliquots were mixed together. The final concentrations of the respective components in the phosphate buffer (10 mmol/l, pH 7.4, 0.5% acetonitrile, 1% DMSO) were as follows: the liposomes (2.5 mg/ml Egg PC, 0.1 mg/ml DCP), the NBD-TEEPO compound (5.0 μmol/l), each of the test compounds (10 μmol/l), and AAPH (20 mmol/l).
While incubating the thus-obtained mixture at 37° C., the fluorescence intensity was measured after 40 minutes had elapsed since the mixing of the components. The fluorescence intensity was measured at an excitation wavelength of 470 nm and a fluorescence wavelength of 530 nm. Then, on the basis of the thus-measured fluorescence intensities, the activity value of the LOO. scavenging ability was calculated as per the above-described equation.

SMILES | R/L: ratio of activity value (R) of LO. scavenging ability to activity value (L) of LOO. scavenging ability [1] | Fe stimulation (R): activity value of LO. scavenging ability [1] | AAPH stimulation (L): activity value of LOO. scavenging ability [2] | balance between the LO. scavenging ability and the LOO. scavenging ability (result in words) [1]
CCOC(=O)[C@@](C)(N)Cc1ccc(O)c(O)c1 [(10)] | 0.78 | 0.517 | 0.663 | –
CC1=NN(c2ccccc2)C(=O)C1 [Edaravone, 5-methyl-2-phenyl-2,4-dihydro-3H-pyrazol-3-one, reference compound] | 0.98 | 0.288 | 0.293 | approximately the same level of scavenging ability against LO. and LOO.
CCC(C)OC(=O)[C@@](C)(N)Cc1ccc(O)c(O)c1 (stereo partly drawn) [Formula (3), s-butyl (2S)-2-amino-3-(3,4-dihydroxyphenyl)-2-methylpropanoate] | 1.04 | 0.754 | 0.726 | –
CC(C)(C)OC(=O)[C@@](C)(N)Cc1ccc(O)c(O)c1 [Formula (4), t-butyl (S)-2-amino-3-(3,4-dihydroxyphenyl)-2-methylpropanoate] | 1.07 | 0.654 | 0.610 | –
CC(C)COC(=O)[C@@](C)(N)Cc1ccc(O)c(O)c1 [Formula (5), isobutyl (S)-2-amino-3-(3,4-dihydroxyphenyl)-2-methylpropanoate] | 1.19 | 0.539 | 0.452 | –
CCCOC(=O)[C@@](C)(N)Cc1ccc(O)c(O)c1 [Formula (7), propyl (S)-2-amino-3-(3,4-dihydroxyphenyl)-2-methylpropanoate] | 0.88 | 0.454 | 0.517 | –
CC(C)OC(=O)[C@@](C)(N)Cc1ccc(O)c(O)c1 [Formula (8), isopropyl (S)-2-amino-3-(3,4-dihydroxyphenyl)-2-methylpropanoate] | 0.95 | 0.327 | 0.346 | –
CCCCOC(=O)[C@@](C)(N)Cc1ccc(O)c(O)c1 [Formula (9), butyl (S)-2-amino-3-(3,4-dihydroxyphenyl)-2-methylpropanoate] | 1.04 | 0.313 | 0.301 | –
